{"source": "patent US20170027896A1", "about": "“METHODS AND COMPOSITIONS FOR THE TREATMENT OF VASCULAR MALFORMATION” (IFOM - FONDAZIONE ISTITUTO FIRC DI ONCOLOGIA MOLECOLARE, priority 2014, published 2017)", "key": {"[1]": {"test_system": "b-catenin transcription activity in brain endothelial cells of CCM3-ECKO mice", "assay": "Immunostaining of brain sections of CCM3-ECKO mice (b-gal reporter, progenitor/EndMT markers, VE-cadherin)", "assay_type": "in vivo, mouse", "conditions": "dpn 9", "excerpt": "The CCM3-flox/flox mice were generated at TaconicArtemis (Koeln, Germany). Two P-lox sequences were inserted that flank exons 4 and 5 of the murine CCM3 gene, to produce a loss-of-function mutation after excision by Ore recombinase. These CCM3-flox/flox mice were bred with Cdh5(PAC)-CreERT2 mice (Wang et al, 2010) for tamoxifen-inducible endothelial-cell-specific expression of Ore-recombinase and CCM3 gene recombination. The CCM3-flox/flox-Cdh5(PAC)-CreERT2 mice were further bred with BAT-gal mice (Maretto et al, 2003) to monitor the activation of b-catenin transcription signaling, and with Rosa 26-Enhanced […] Fluorescent Protein (EYFP) (Rosa26EYFP) mice (Srinivas et al, 2001) to monitor the expression of Ore-recombinase through the expression of EYFP. Tamoxifen (Sigma) was dissolved in corn oil and 10% ethanol (at 10 mg/ml), and then diluted 1:5 in corn oil before single intragastric administration to dpn 1-2 pups (35 mg/kg body weight), as described in^14. The control (wild-type) mice included CCM3-flox/flox-Cdh5(PAC)-CreERT2-BAT-gal mice treated with the vehicle used to dissolve the tamoxifen (corn oil plus 2% ethanol), and CCM3^+/+-Cdh5(PAC)-CreERT2-BAT-gal mice treated with tamoxifen.\nBrains and eyes from mice pups were fixed in 3% paraformaldehyde immediately after dissection, and this fixing was continued overnight at 4° C. The retinas were dissected from the eyes just before staining as the whole mount. Fixed brains were embedded in 4% low-melting-point agarose and sectioned along the sagittal axis ([…]) using a vibratome (1000 Plus, The Vibratome Company, St. Louis, Mo., US).\nBrain sections and retinas were stained as floating samples in 12-well and 96-well plates, respectively. They were blocked overnight at 4° C. in 1% fish-skin gelatin with 0.5% Triton X100 and 5% donkey serum in phosphate-buffered saline (PBS) containing 0.01% thimerosal. The samples were incubated overnight at 4° C. with the primary antibodies diluted in 1% fish-skin gelatin with 0.25% Triton X100 in PBS containing 0.01% thimerosal. Following washing with 0.1% Triton X100 in PBS, the secondary antibodies were added for 4 h at room temperature in 1% fish-skin gelatin with 0.25% Triton X100 in PBS containing 0.01% thimerosal. The incubation with DAPI was in PBS for 4 h, which was followed by several washes in PBS, post-fixating with 3% paraformaldehyde for 5 min at room temperature, and further washes in PBS. The brain sections were mounted in Vectashield with DAPI, and the coverslips fixed with nail varnish; the retinas were mounted in Prolong gold with DAPI.\nThe following antibodies were used: anti-Pecam (hamster; MAB1398Z, Millipore); anti-b-galactosidase (chicken; ab9361, Abcam); anti-VE-cadherin (rat monoclonal; 550548, BD Biosciences); anti-VE-cadherin (goat; sc-6458, Santa Cruz); anti-active-b-catenin (mouse monoclonal clone 8E7) dephosphorylated on Ser37 and Thr41, Millipore); anti-total-b-catenin (mouse monoclonal; Cell Signaling); anti-S100a4 (rabbit; 07-2274, Millipore); anti-Klf4 (goat; AF3158, R&D); anti-CD44 (rat; 553131, BD Biosciences); anti-ID1 (rabbit; sc-488, Santa Cruz); anti-aSMA (mouse monoclonal; F3777, Sigma); anti-GFP (rabbit; A-6455, Invitrogen); anti-podocalyxin (goat; AF1556, R&D); anti-phospho-histone H3 (rabbit; ab51776, Millipore); anti-CCM3 (rabbit; Eurogentec); anti-p-Smad1 (rabbit; 9516, Cell Signaling); anti-endomucin (rabbit; sc-65495, Santa Cruz); anti-α-tubulin (mouse monoclonal; T9026, Sigma)."}, "[2]": {"test_system": "CCM3-knockout brain endothelial cells in primary culture", "assay": "rtPCR of b-catenin target genes in primary cultures of CCM3-knockout brain endothelial cells", "assay_type": "cell-based, mouse", "parameters": "dose or concentration left out as unconfirmed", "conditions": "48 h", "excerpt": "Endothelial cells from the CCM3-flox/flox mice (8-10 weeks old) were isolated from the brain as previously described^13. Recombination of the floxed CCM3 gene was induced by treating the cells at culture day 1 with the AdenoCre viral vector, as previously described^59. The control endothelial cells were an aliquot of the same endothelial cell preparation treated with AdenoGFP, instead of AdenoCre. The cells were then maintained in culture for up to a further 7 days before analysis, as described in the main text. Drug treatments were for 48 h before the processing of the cells. Drugs were added to confluent cells for 48 h before the indicated assays. The final concentrations used were: […] (all from Sigma-Aldrich). As all of these were dissolved in DMSO, control treatment (vehicle) was 0.1% DMSO final concentration, as for drug treatment. RNA extraction was performed with RNeasy kits (74106; Promega). The RNA (1 μg) was reverse transcribed with random hexamers (High Capacity cDNA Archive kits; Applied Biosystems). […] For each sample, the expression levels were determined with the comparative threshold cycle (Ct) method, and normalized to the housekeeping genes encoding 18S and glyceraldehyde-3-phosphate dehydrogenase (GAPDH). […]"}}, "note": "“Also recorded” adds a separate entry of the source.", "data": [{"smiles": "CSc1ccc(/C=C2/C(C)=C(CC(=O)O)c3cc(F)ccc32)cc1", "note": "[sulindac sulfide, (Z)-5-Fluoro-2-methyl-1-[4-(methylthio)benzylidene]indene-3-acetic acid]", "values": [{"measurement": "expression of nuclear reporter gene b-gal in endothelial cells of brain vasculature", "setting": "[1]; CCM3-ECKO BAT-gal pups", "value": "abolition; also recorded: inhibited"}, {"measurement": "VE-cadherin localization at endothelial cell-cell junctions in brain vessels", "setting": "[1]; CCM3-ECKO pups", "value": "better localized at endothelial cell-cell junctions"}, {"measurement": "expression of b-catenin target genes / progenitor and EndMT markers (Klf4, S100a4, Id1) in brain endothelium", "setting": "[1]; CCM3-ECKO pups, immunostaining", "value": "strongly reduces; also recorded: inhibited"}, {"measurement": "expression of endogenous b-catenin target genes (Klf4, Ly6a, S100a4, Id1; rtPCR)", "setting": "[2]", "value": "effectively inhibited"}]}]}
